Laboratory results: ChEMBL document CHEMBL1135566, “Synthesis of a novel fluorescent probe for estrogen receptor” (Bioorg Med Chem Lett, 2002)

Target: T1, Estrogen receptor (Homo sapiens, UniProt P03372)
T1 sequence (P03372 whole entry): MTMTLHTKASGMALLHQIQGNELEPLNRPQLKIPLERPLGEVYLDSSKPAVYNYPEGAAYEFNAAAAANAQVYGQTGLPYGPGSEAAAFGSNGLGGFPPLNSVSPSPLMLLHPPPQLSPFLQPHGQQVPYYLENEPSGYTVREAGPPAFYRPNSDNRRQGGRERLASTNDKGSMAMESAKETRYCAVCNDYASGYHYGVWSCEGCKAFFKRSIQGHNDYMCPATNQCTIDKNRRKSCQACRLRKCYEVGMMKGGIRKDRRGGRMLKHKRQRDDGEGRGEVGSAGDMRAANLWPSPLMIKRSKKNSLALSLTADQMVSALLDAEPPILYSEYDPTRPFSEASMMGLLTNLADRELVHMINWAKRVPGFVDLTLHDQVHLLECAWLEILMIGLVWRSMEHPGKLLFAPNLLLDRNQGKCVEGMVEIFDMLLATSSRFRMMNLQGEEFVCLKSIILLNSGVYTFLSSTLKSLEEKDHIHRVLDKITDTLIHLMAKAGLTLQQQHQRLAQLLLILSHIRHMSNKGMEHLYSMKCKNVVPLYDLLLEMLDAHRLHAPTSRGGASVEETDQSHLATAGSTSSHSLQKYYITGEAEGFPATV
Experiment: Binding constant for Estrogen receptor alpha

Kd: 5.8 nM
Compound: CC/C(=C(/CC)c1ccc(OCCCC(=O)NCc2ccc(-c3c4ccc(=O)cc-4oc4cc(O)ccc34)c(C(=O)O)c2)cc1)c1ccc(O)cc1
